# What was measured:
# Test in all cases: relative viability (nuclei count vs DMSO), 5 days (fraction); higher = more cells survive
# [1] = compound: CC1=CC=C(C=C1)C(=O)CN2C3=C(CCCC3)SC2=N [Pifithrin_alpha] + CC(C)C[C@H](NC(=O)[C@H](Cc1ccccc1)NC(=O)c1cnccn1)B(O)O [Bortezomib] (partner 0.002 µM)
# Method in brief: (§1)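 Nuclei were stained with Hoechst during a one-step fixation (final 0.05% Triton X-100, 1% formaldehyde, 1 ug/ml Hoechst) carried out 5 days after dosing, then counted on 4× images. The cells, lung cancer lines in 1536-well plates, had been dosed by pin tool the day after seeding with one drug alone or a fixed anchor-drug dose plus five library-drug doses (not always all listed) in √10 steps. Relative viability is the nuclei count in treated wells divided by that in vehicle wells, and each value is the median of duplicate plates.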
# [2] = compound: CC1=CC=C(C=C1)C(=O)CN2C3=C(CCCC3)SC2=N [Pifithrin_alpha] + C[C@]1(O)C[C@@H](c2nc(-c3ccc4ccc(-c5ccccc5)nc4c3)c3c(N)nccn32)C1 [Linsitinib] (partner 1 µM)
# Method in brief: as §1
# [3] = compound: CC1=CC=C(C=C1)C(=O)CN2C3=C(CCCC3)SC2=N [Pifithrin_alpha] + N=C(N)NC(=N)NCCc1ccccc1 [Phenformin] (partner 250 µM)
# Method in brief: as §1
# Bemcentinib + Dasatinib = compound: Nc1nc(Nc2ccc3c(c2)CC[C@@H](N2CCCC2)CC3)nn1-c1cc2c(nn1)-c1ccccc1CCC2 [Bemcentinib] + Cc1nc(Nc2ncc(C(=O)Nc3c(C)cccc3Cl)s2)cc(N2CCN(CCO)CC2)n1 [Dasatinib] (partner 0.075 µM)
# Method in brief: as §1
Cell Line,relative viability ([1]; first compound 1 µM),relative viability ([1]; first compound 3.162 µM),relative viability ([1]; first compound 10 µM),relative viability ([1]; first compound 31.62 µM),relative viability ([1]; first compound 100 µM),relative viability ([2]; first compound 1 µM),relative viability ([2]; first compound 3.162 µM),relative viability ([2]; first compound 10 µM),relative viability ([2]; first compound 31.62 µM),relative viability ([2]; first compound 100 µM),relative viability ([3]; first compound 1 µM),relative viability ([3]; first compound 3.162 µM),relative viability ([3]; first compound 10 µM),relative viability ([3]; first compound 31.62 µM),relative viability ([3]; first compound 100 µM),relative viability (Bemcentinib + Dasatinib; first compound 0.04 µM),relative viability (Bemcentinib + Dasatinib; first compound 0.1265 µM),relative viability (Bemcentinib + Dasatinib; first compound 0.4 µM),relative viability (Bemcentinib + Dasatinib; first compound 1.265 µM),relative viability (Bemcentinib + Dasatinib; first compound 4 µM)
A-427,0.953,0.957,0.916,0.722,0.928,1.07,1.06,1.1,0.924,1.11,0.318,0.305,0.245,0.235,0.264,0.719,0.737,0.68,0.707,0.691
LXF-289,1.01,1.01,1.02,0.813,0.962,0.985,0.967,0.959,0.869,0.961,0.509,0.562,0.526,0.471,0.556,0.206,0.178,0.212,0.241,0.187
NCI-H1355,1.17,1.04,0.954,0.789,1.03,0.753,0.666,0.599,0.605,0.599,0.456,0.401,0.378,0.351,0.38,0.723,0.778,0.829,0.778,0.841
NCI-H1437,0.567,0.363,0.401,0.319,0.281,1.14,1.24,0.893,0.564,0.54,0.296,0.258,0.294,0.264,0.259,0.365,0.421,0.416,0.438,0.38
HCC-366,1.33,0.706,1.07,,1.1,0.512,0.508,0.581,,0.469,0.662,0.658,0.618,,0.533,0.544,0.621,0.621,0.852,0.659
NCI-H1299,1.08,1.02,1.02,0.896,1.03,1.04,1.09,1.01,0.813,0.998,,,,,,,,,,
201T,1.05,1.07,1.16,0.794,0.913,0.956,0.792,0.744,0.689,0.731,0.401,0.385,0.383,0.441,0.457,0.559,0.676,0.591,0.613,0.57
IA-LM,0.984,0.415,0.281,0.33,0.339,0.784,0.554,0.272,0.501,0.267,,,,,,,,,,
NCI-H1734,1.1,0.928,0.899,0.7,0.817,0.994,0.89,0.862,0.611,0.889,0.358,0.456,0.372,0.362,0.376,0.46,0.48,0.512,0.41,0.448
NCI-H1993,,0.815,0.861,0.887,0.892,,0.669,0.741,0.684,0.714,0.474,0.461,0.49,0.547,0.511,0.571,0.563,0.625,0.552,0.577
NCI-H2085,0.993,1.07,1.01,0.878,1,0.829,0.934,0.768,0.797,0.859,,0.597,0.686,0.65,0.619,0.224,0.195,0.258,0.256,0.294
EBC-1,0.512,0.411,0.437,0.354,0.287,0.912,0.878,0.861,0.561,0.576,,,,,,,,,,
COR-L23,1.01,0.928,0.973,,0.908,0.974,1.02,0.882,,0.871,0.465,0.46,0.426,,0.509,0.414,0.531,0.55,0.359,0.482
NCI-H1793,,,,,,0.896,0.7,0.812,0.787,0.964,,0.339,0.306,0.33,0.329,0.305,0.412,0.342,,0.405
A549,,,,,,,0.582,0.595,0.458,0.71,,0.272,0.374,0.315,0.305,,,,,
EPLC-272H,,0.944,0.895,0.627,1.11,,1.07,1.21,0.995,1.11,0.266,0.305,0.364,0.246,0.222,0.285,0.389,0.332,0.393,0.364
NCI-H2009,0.551,0.907,0.942,0.444,0.798,1.25,1.25,1.16,0.822,0.998,0.483,0.467,0.451,0.345,0.422,0.24,0.303,0.276,0.272,0.247
ChaGo-K-1,0.962,1.21,0.944,0.711,0.986,,,,,,0.485,0.5,0.491,0.387,0.472,0.591,0.614,0.636,0.496,0.481
SW 900,,,,,,,,,,,0.519,0.605,0.715,0.569,0.393,0.587,0.672,0.586,0.493,0.563
NCI-H2342,,,,,,,,,,,0.484,0.622,0.543,0.585,0.553,0.316,0.318,0.313,0.264,0.308

# — the supplement of paper PMC10307832
